Our source for the IC50 values is US12037345B2, “Heterobicyclic compounds for inhibiting the activity of SHP2” (TAIHO PHARMACEUTICAL CO., LTD., priority 2018, dated 2024).

The IC50 is the point on the concentration scale where inhibition reaches its midpoint.

One experiment addresses SHP2 (Homo sapiens (Human), UniProt Q06124). In words: SHP2 Biochemical Assay (DiFMUP conversion, pIRS1-activated). On the procedure: SHP2 activity was monitored by measuring the conversion of the surrogate substrate 6,8-difluoromethylumbelliferyl phosphate (DiFMUP) to the fluorescent product, 6,8-difluoromethylumbelliferone (DiFMU).
SHP2 was pre-incubated with test compounds and the activating peptide pIRS1 (H2N-LN(pY)IDLDLV-(PEG)8-LST(pY)ASINFQK-amide) for 30 min, prior to addition of the 6,8-difluoromethylumbelliferyl phosphate (DiFMUP), (Thermo Fisher D6567). Final assay concentrations were 10 pM SHP2, […] pIRS1 peptide, 50 μM DiFMUP, 25 mM Bis-Tris propane, pH 7.0, 150 mM NaCl, 0.05% (v/v) Tween-20, 0.5 mM TCEP and 5% (v/v) DMSO. Rates of reaction were then measured over 30 min by monitoring fluorescence on a BMG Pherastar reader at excitation 360 nm/emission 450 nm. IC50 values were calculated in singlicate from the normalized dose-response plots using four parameter logistic curve fit. The Experiment for each compound was carried out in one time or multiple times, and the IC50 values were shown as a single value (for a compound measured in a single experiment) or an average value (for a compound measured in multiple experiments).

In experiment [1] the test system is pERK (phospho-p44/42 ERK) in HCC827 cells. The experiment in a line: Cellular pERK Inhibition Assay, Method A (In-Cell Western). In kind it is cell-based. To be noted: Homo sapiens. On the procedure: Cellular pERK Inhibition Assay
pERK levels were determined using the In-Cell Western assay. HCC827 cells (ATCC, Manassas, USA) were seeded into 384-well plates at a density of 1×10^4 cells/well in RPMI1640 medium supplemented with 10% FBS and incubated 24h. Compounds were diluted first in DMSO and then into serum-free medium, before being added to cells in quadruplicate to give a final concentration of 0.2% DMSO. Plates were incubated at 37° C. for the indicated time in a humidified atmosphere of 5% CO2 in air.
Following compound treatment, cells were fixed with formalin neutral buffer solution for 20 minutes at room temperature. Plates were washed three times with 0.1% Triton-X in PBS and cells were blocked for 1 hour with Odyssey blocking buffer (LI-COR, #927-40000). After shaking out blocking buffer, cells were incubated with phospho-p44/42 ERK antibody (Cell Signalling Technology, #4370, 1:200) diluted in Odyssey blocking buffer at 4° C. overnight. Plates were washed again and cells were incubated for 1 hour with Goat anti-Rabbit […] (LI-COR, #926-32211, 1:800) diluted in Odyssey blocking buffer. After washing and removing wash solution completely using a centrifuge machine, cells were scanned on the Odyssey (LI-COR), following the manufacturer's instructions. The average signal from blank wells (no cells added) was subtracted from the signals from each sample well. Levels of pERK were then expressed as percent of control, using DMSO treated samples as control. The relative IC50 values were calculated in quadruplicate from the normalized dose-response plots using four parameter logistic curve fit. The Experiment for each compound was carried out in one time or multiple times, and the IC50 values were shown as a single value (for a compound measured in a single experiment) or an average value (for a compound measured in multiple experiments).

[2] abbreviates: Table 19, head prints unit as "-M", read-out: pERK (IC50) Method A.
The mark [3] stands for this setting: Table 19, head prints unit as "-M".

Counter-ions that a name gives are not always drawn. Like-named read-outs stand apart in the source and are kept apart here.

SHP2, sequence (Q06124 whole entry): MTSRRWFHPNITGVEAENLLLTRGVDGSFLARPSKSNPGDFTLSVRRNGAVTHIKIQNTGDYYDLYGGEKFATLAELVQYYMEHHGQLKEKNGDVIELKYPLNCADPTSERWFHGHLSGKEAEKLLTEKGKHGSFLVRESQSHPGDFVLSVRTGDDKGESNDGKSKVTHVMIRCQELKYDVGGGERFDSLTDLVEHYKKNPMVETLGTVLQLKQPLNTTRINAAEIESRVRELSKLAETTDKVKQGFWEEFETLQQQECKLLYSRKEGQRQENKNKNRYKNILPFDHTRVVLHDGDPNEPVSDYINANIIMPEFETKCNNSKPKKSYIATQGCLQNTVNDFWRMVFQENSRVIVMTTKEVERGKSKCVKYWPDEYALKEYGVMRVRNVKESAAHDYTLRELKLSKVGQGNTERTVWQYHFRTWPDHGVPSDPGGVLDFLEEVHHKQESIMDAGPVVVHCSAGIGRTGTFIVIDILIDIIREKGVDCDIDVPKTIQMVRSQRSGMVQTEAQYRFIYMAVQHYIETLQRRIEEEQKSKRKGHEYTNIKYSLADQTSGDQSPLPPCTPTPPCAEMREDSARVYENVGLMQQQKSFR

On to `CCn1cc2c(Cl)c(-c3c[nH]c4nc(N5CCC6(CNC6)C5)n(C)c(=O)c34)ccc2n1` (racemic) [Example 196, rac-5-(4-chloro-2-ethyl-2H-indazol-5-yl)-2-{2,6-diazaspiro[3.4]octan-6-yl}-3-methyl-3H,4H,7H-pyrrolo[2,3-d]pyrimidin-4-one], for which the 50% inhibitory concentration (IC50) against SHP2 (Table 20) is 32 nM.
Still for that read-out and setting: for `CCn1cc2c(Cl)c(-c3c[nH]c4nc(N5CC6CNCC5C6)n(C)c(=O)c34)ccc2n1` (single isomer, unassigned) [Example 193, 5-(4-chloro-2-ethyl-2H-indazol-5-yl)-2-{3,6-diazabicyclo[3.2.1]octan-6-yl}-3-methyl-3H,4H,7H-pyrrolo[2,3-d]pyrimidin-4-one hydrochloride] the value was 260 nM.
For the compound `CCn1cc2c(Cl)c(-c3c[nH]c4nc(N5C[C@@H]6CC[C@H]5[C@H]6N)n(C)c(=O)c34)ccc2n1` (stereo in doubt) [Example 133, rac-2-((1S,4S,7S)-7-amino-2-azabicyclo[2.2.1]heptan-2-yl)-5-(4-chloro-2-ethyl-2H-indazol-5-yl)-3-methyl-3,7-dihydro-4H-pyrrolo[2,3-d]pyrimidin-4-one], the IC50 in experiment [1] (setting [2]) was 0.046 µM.
`CCn1cc2c(Cl)c(-c3c[nH]c4nc(N5C[C@H]6CC[C@@H]5[C@@H]6N)n(C)c(=O)c34)ccc2n1` (stereo in doubt) [Example 155, rel-2-((1R,4R,7R)-7-amino-2-azabicyclo[2.2.1]heptan-2-yl)-5-(4-chloro-2-ethyl-2H-indazol-5-yl)-3-methyl-3,7-dihydro-4H-pyrrolo[2,3-d]pyrimidin-4-one] returned a concentration for half-maximal inhibition (IC50) against SHP2 (setting [3]) of 4 nM.
Same read-out and setting: in the case of `C[C@@H]1CN(c2nc3[nH]cc(-c4ccc5nn(C)cc5c4Cl)c3c(=O)n2C)CCN1` [Example 18, (R)-5-(4-chloro-2-methyl-2H-indazol-5-yl)-3-methyl-2-(3-methylpiperazin-1-yl)-3,7-dihydro-4H-pyrrolo[2,3-d]pyrimidin-4-one] it was 230 nM; in that of `Cn1cc2c(Cl)c(-c3c[nH]c4nc(N5CCN[C@H](CO)C5)n(C)c(=O)c34)ccc2n1` [Example 19, (S)-5-(4-chloro-2-methyl-2H-indazol-5-yl)-2-(3-(hydroxymethyl)piperazin-1-yl)-3-methyl-3,7-dihydro-4H-pyrrolo[2,3-d]pyrimidin-4-one], 350 nM; in that of `Cn1cc2c(Cl)c(-c3c[nH]c4nc(N5CCN[C@H](CCO)C5)n(C)c(=O)c34)ccc2n1` [Example 20, (R)-5-(4-chloro-2-methyl-2H-indazol-5-yl)-2-(3-(2-hydroxyethyl)piperazin-1-yl)-3-methyl-3,7-dihydro-4H-pyrrolo[2,3-d]pyrimidin-4-one], 760 nM.
The same measure, in the same setting: in the case of `Cn1cc2c(Cl)c(-c3c[nH]c4nc(N5CCC6(CCN6)CC5)n(C)c(=O)c34)ccc2n1` [Example 42, 5-(4-chloro-2-methyl-2H-indazol-5-yl)-3-methyl-2-(1,7-diazaspiro[3.5]nonan-7-yl)-3,7-dihydro-4H-pyrrolo[2,3-d]pyrimidin-4-one] it was 78 nM.
As to `CCn1cc2c(Cl)c(-c3c[nH]c4nc(N5[C@H]6CC[C@@H]5[C@H](N)C6)n(C)c(=O)c34)ccc2n1` [Example 92, 2-((1R,2R,4S)-2-amino-7-azabicyclo[2.2.1]heptan-7-yl)-5-(4-chloro-2-ethyl-2H-indazol-5-yl)-3-methyl-3,7-dihydro-4H-pyrrolo[2,3-d]pyrimidin-4-one], the half-inhibitory concentration (IC50) in experiment [1] (setting [2]) came out at 0.032 µM.
Take `Cn1nc2ccc(-c3c[nH]c4nc(N5[C@H]6CC[C@@H]5[C@H](N)C6)n(C)c(=O)c34)c(Cl)c2c1Cl` [Example 93, 2-((1R,2R,4S)-2-amino-7-azabicyclo[2.2.1]heptan-7-yl)-5-(3,4-dichloro-2-methyl-2H-indazol-5-yl)-3-methyl-3,7-dihydro-4H-pyrrolo[2,3-d]pyrimidin-4-one]: the half-maximal inhibitory concentration (IC50) in experiment [1] (setting [2]) stood at 0.021 µM.
On the same count and under the same terms, in the case of `Cn1nc2ccc(-c3c[nH]c4nc(N5[C@H]6CC[C@@H]5[C@H](N)C6)n(C)c(=O)c34)c(F)c2c1Cl` [Example 96, 2-((1R,2R,4S)-2-amino-7-azabicyclo[2.2.1]heptan-7-yl)-5-(3-chloro-4-fluoro-2-methyl-2H-indazol-5-yl)-3-methyl-3,7-dihydro-4H-pyrrolo[2,3-d]pyrimidin-4-one] it was 0.03 µM; in that of `Cn1c(N2[C@H]3CC[C@@H]2[C@H](N)C3)nc2[nH]cc(-c3ccc4ncsc4c3Cl)c2c1=O` [Example 101, 2-((1R,2R,4S)-2-amino-7-azabicyclo[2.2.1]heptan-7-yl)-5-(7-chlorobenzo[d]thiazol-6-yl)-3-methyl-3,7-dihydro-4H-pyrrolo[2,3-d]pyrimidin-4-one], 0.046 µM.
On SHP2 (setting [3]), `Cn1cc2c(Cl)c(-c3n[nH]c4nc(N5CC6COCC(C5)N6)n(C)c(=O)c34)ccc2n1` [Example 145, 3-(4-chloro-2-methyl-2H-indazol-5-yl)-5-methyl-6-{3-oxa-7,9-diazabicyclo[3.3.1]nonan-7-yl}-1H,4H,5H-pyrazolo[3,4-d]pyrimidin-4-one] came in with an IC50 of 150 nM.
Still for that read-out and setting: in the case of `Cn1cc2c(Cl)c(-c3n[nH]c4nc(N5[C@@H]6CC[C@H]5[C@H](F)[C@@H](N)C6)n(C)c(=O)c34)ccc2n1` [Example 149, 6-[(1S,2R,3S,5R)-3-Amino-2-fluoro-8-azabicyclo[3.2.1]octan-8-yl]-3-(4-chloro-2-methyl-2H-indazol-5-yl)-5-methyl-1H,4H,5H-pyrazolo[3,4-d]pyrimidin-4-one] it was 290 nM.
In the case of `Cn1nc2ccc(-c3c[nH]c4nc(N5[C@H]6CC[C@@H]5[C@@H](N)C6)n(C)c(=O)c34)c(Cl)c2c1Cl` [Example 166, 2-((1R,2S,4S)-2-amino-7-azabicyclo[2.2.1]heptan-7-yl)-5-(3,4-dichloro-2-methyl-2H-indazol-5-yl)-3-methyl-3,7-dihydro-4H-pyrrolo[2,3-d]pyrimidin-4-one], the IC50 on SHP2 (Table 20) was 53 nM.
At SHP2 (Table 20), `Cn1nc2ccc(-c3c[nH]c4nc(N5[C@H]6CC[C@@H]5[C@H](N)C6)n(C)c(=O)c34)cc2c1Cl` [Example 167, 2-((1R,2R,4S)-2-amino-7-azabicyclo[2.2.1]heptan-7-yl)-5-(3-chloro-2-methyl-2H-indazol-5-yl)-3-methyl-3,7-dihydro-4H-pyrrolo[2,3-d]pyrimidin-4-one] yielded a 50% inhibitory concentration (IC50) of 13 nM.
Same read-out and setting: in the case of `Cn1nc2c(Cl)cc(-c3c[nH]c4nc(N5[C@H]6CC[C@@H]5[C@@H](N)C6)n(C)c(=O)c34)c(Cl)c2c1Cl` [Example 168, 2-((1R,2S,4S)-2-amino-7-azabicyclo[2.2.1]heptan-7-yl)-3-methyl-5-(3,4,7-trichloro-2-methyl-2H-indazol-5-yl)-3,7-dihydro-4H-pyrrolo[2,3-d]pyrimidin-4-one] it was 7 nM.
Take `Cn1nc2ccc(-c3n[nH]c4nc(N5C[C@H]6CC[C@@H]5[C@@H]6N)n(C)c(=O)c34)c(Cl)c2c1Cl` [Example 171, 6-((1R,4R,7R)-7-amino-2-azabicyclo[2.2.1]heptan-2-yl)-3-(3,4-dichloro-2-methyl-2H-indazol-5-yl)-5-methyl-1,5-dihydro-4H-pyrazolo[3,4-d]pyrimidin-4-one]: in experiment [1] (Table 20, read-out: pERK (IC50, μM) Method A), the IC50 was 0.02 µM.
With `CCn1cc2ccc(-c3c[nH]c4nc(N5CCC6(CC5)COC[C@H]6N)n(C)c(=O)c34)cc2n1` [Example 183, 2-[(4S)-4-amino-2-oxa-8-azaspiro[4.5]decan-8-yl]-5-(2-ethyl-2H-indazol-6-yl)-3-methyl-3H,4H,7H-pyrrolo[2,3-d]pyrimidin-4-one hydrochloride], the concentration for half-maximal inhibition (IC50) against SHP2 (Table 20) was determined as 140 nM.
`Cn1cc2c(Cl)c(-c3c[nH]c4nc(N5[C@@H]6CC[C@H]5C[C@](N)(C(F)F)C6)n(C)c(=O)c34)ccc2n1` [Example 185, 2-[(endo)-3-amino-3-(difluoromethyl)-8-azabicyclo[3.2.1]octan-8-yl]-5-(4-chloro-2-methyl-2H-indazol-5-yl)-3-methyl-3H,4H,7H-pyrrolo[2,3-d]pyrimidin-4-one hydrochloride] had a half-inhibitory concentration (IC50) at SHP2 (Table 20) of 180 nM.
Still for that read-out and setting: for `CCn1cc2cc(-c3c[nH]c4nc(N5CCC6(CC5)COC[C@H]6N)n(C)c(=O)c34)cc(F)c2n1` [Example 186, 2-[(4S)-4-amino-2-oxa-8-azaspiro[4.5]decan-8-yl]-5-(2-ethyl-7-fluoro-2H-indazol-5-yl)-3-methyl-3H,4H,7H-pyrrolo[2,3-d]pyrimidin-4-one hydrochloride] the value was 36 nM.
